Experimental data reported in patent EP0869800B1, “ACYLGLYCINE- AND ZINC SALT-BASED ANTIBACTERIAL COMPOUND” (PIERRE FABRE DERMO-COSMETIQUE, priority 1995, dated 1997).

Key:
[1] = tested on: Staphylococcus aureus 6538 P; test: Minimal inhibitory concentration (CMI), serial half dilutions in broth on microplate; type: cell-based; conditions: product alone; 24 h at 32°C; 10^6 germes par ml
Description: • . souche: Staphylococcus aureus 6538 P • milieu de culture : • . bouillon et gélose trypticase soja (Biomérieux) • . bouillon Trypticase soja + 10% Tween 80. • appareillage : • . microplaques stériles Nunc R Nunclon à 96 puits • . eau distillée stérile • . tubes à essais stériles • . étuve à 32°C (Jouan) • . spectrophotomètre PRIM et cuves adaptées • . billes de verres stériles • produits : Les solutions-mères des produits cités ci-dessous ont été préparés comme suit : • . Zn SO 4: solution aqueuse à 5% • . n-octanoyl-glycine : solution à 1% dans 30% butylène glycol puis chauffage jusqu'à dissolution homogène. • méthodes : • CMI : Concentration Minimale Inhibitrice Une distribution de 100 µl de bouillon Trypticase soja est réalisée dans chaque cupule de la microplaque stérile A. Une distribution de 100 µl des différents produits a lieu dans une cupule (on est alors à 50% d'actif) (une cupule par produit). Une série de dilutions sériées au demi est ensuite réalisée sur microplaque. Un témoin stérilité du milieu et un autre témoin de la vigueur de la souche sont réalisés en parallèle sur la microplaque. […]

[2] = tested on: Staphylococcus aureus 6538 P; test: Study of the association by the checkerboard method on microplate (CMI in association, FiC, FiC Index); type: cell-based; conditions: for FiC: CMI of the product in association / CMI of the product alone
Description: • . souche: Staphylococcus aureus 6538 P • milieu de culture : • . bouillon et gélose trypticase soja (Biomérieux) • . bouillon Trypticase soja + 10% Tween 80. • appareillage : • . microplaques stériles Nunc R Nunclon à 96 puits • . eau distillée stérile • . tubes à essais stériles • . étuve à 32°C (Jouan) • . spectrophotomètre PRIM et cuves adaptées • . billes de verres stériles • produits : Les solutions-mères des produits cités ci-dessous ont été préparés comme suit : • . Zn SO 4: solution aqueuse à 5% • . n-octanoyl-glycine : solution à 1% dans 30% butylène glycol puis chauffage jusqu'à dissolution homogène. • méthodes : • CMI : Concentration Minimale Inhibitrice Une distribution de 100 µl de bouillon Trypticase soja est réalisée dans chaque cupule de la microplaque stérile A. Une distribution de 100 µl des différents produits a lieu dans une cupule (on est alors à 50% d'actif) (une cupule par produit). Une série de dilutions sériées au demi est ensuite réalisée sur microplaque. Un témoin stérilité du milieu et un autre témoin de la vigueur de la souche sont réalisés en parallèle sur la microplaque. L'ensemencement de la microplaque (A) a lieu sous la hotte après préparation de l'inoculum bactérien comme suit : Les souches ayant été préalablement repiquées la veille sur gélose Trypticase soja, un inoculum 10^8 germes/ml est dispersé dans l'eau distillée stérile puis agité au vortex. Les billes de verre assurant une bonne dispersion des souches, la mesure de la densité optique permet de préparer un inoculum adéquat par rapport à un étalonnage pré-établi et validé. La répartition de la souche a lieu dans une deuxième microplaque (B) stérile par distribution de 100 µl d'inoculum par microcupule. L'ensemencement a lieu par un repiquage de la microplaque (B) vers la microplaque (A), il se réalise ainsi une dilution au 1/100 de l'inoculum : la microplaque A contenant alors 10^6 germes par ml, peut être mise à l'étuve 24 h à 32°C. […]

Row | SMILES | CMI Seuls [1] | FiC [2] | CMI Associés ([2]; product in association (checkerboard), incubation at 32°C)
1 | O=S(=O)([O-])[O-].[Zn+2] [Zn SO 4, sulfate de zinc] | 0,15 | 0,20 | 0,03
2 | CCCCCCCC(=O)NCC(=O)O [n octanoyl glycine, n-octanoyl-glycine] | 0,25 | 0,5 | 
